The test system of this test is CD2F1 mice, L1210 leukemia ip, survival T/C. The test can be described thus: NCI In Vivo Anticancer Drug Screen. Data for tumor model L1210 Leukemia (intraperitoneal) in CD2F1 (CDF1) mice. The following applies: higher = longer survival. The essentials:
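Compound-dosed mice with transplantable tumor versus matched vehicle controls; endpoint ratio T/C reported.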

[1] abbreviates: endpoint: mean survival time, dose: 100.0 mg/kg/injection, schedule: Q04DX003 (ip), vehicle: saline with Tween-80.
[2] abbreviates: endpoint: mean survival time, dose: 200.0 mg/kg/injection, schedule: Q04DX003 (ip), vehicle: saline with Tween-80.
[3] abbreviates: endpoint: mean survival time, dose: 400.0 mg/kg/injection, schedule: Q04DX003 (ip), vehicle: saline with Tween-80.
Where [4] appears, read: endpoint: mean survival time, dose: 100.0 mg/kg/injection, schedule: Q01DX009 (ip), vehicle: saline with Tween-80.
Setting [5] is: endpoint: mean survival time, dose: 200.0 mg/kg/injection, schedule: Q01DX009 (ip), vehicle: saline with Tween-80.
The mark [6] stands for this setting: endpoint: mean survival time, dose: 400.0 mg/kg/injection, schedule: Q01DX009 (ip), vehicle: saline with Tween-80.
The mark [7] stands for this setting: endpoint: mean survival time, dose: 100.0 mg/kg/injection, schedule: Q01DX001 (ip), vehicle: saline with Tween-80.
The mark [8] stands for this setting: endpoint: mean survival time, dose: 12.5 mg/kg/injection, schedule: Q01DX009 (ip), vehicle: saline with Tween-80.
[9] abbreviates: endpoint: mean survival time, dose: 25.0 mg/kg/injection, schedule: Q01DX009 (ip), vehicle: saline with Tween-80.
The mark [10] stands for this setting: endpoint: mean survival time, dose: 50.0 mg/kg/injection, schedule: Q01DX009 (ip), vehicle: saline with Tween-80.

Where “and” joins values, the source holds several entries; their conditions need not be identical. Identical values can stand only once. Inconclusive results and toxic doses are left out.

Turning to `Nc1nc2c(nc(Br)n2C2OC(CO)C(O)C2O)c(=O)[nH]1` (centres undefined), the T/C under setting [1] was 98 % of control, the T/C under setting [2] is 102 % of control and the T/C under setting [3] is 94 % of control.

Regarding `CN(C)C(=O)C(=O)C1C=Cc2ccccc21` (centres undefined), the T/C by setting is: under setting [4], 98 % of control; under setting [5], 103 % of control; under setting [6], 93 % of control.

In the case of `CCOC(=O)Nc1cccc(Cl)c1F`, the T/C under setting [4] was 91 % of control, the T/C under setting [5] was 97 % of control and the T/C under setting [6] was 96 % of control.

Consider `CC1CC(=O)C(CCC#N)=C(O)C1` (centres undefined), for which the T/C is 94 % of control under setting [1], 91 % of control under setting [2] and 91 % of control under setting [3].

For `Nc1nc(N)c(-c2ccc(Cl)cc2)c(CBr)n1`, the T/C is, setting by setting: (endpoint: mean survival time, dose: 6.25 mg/kg/injection, schedule: Q01DX001 (ip), vehicle: saline) 95 % of control; (endpoint: mean survival time, dose: 12.5 mg/kg/injection, schedule: Q01DX001 (ip), vehicle: saline) 98 % of control; (endpoint: mean survival time, dose: 25.0 mg/kg/injection, schedule: Q01DX001 (ip), vehicle: saline with Tween-80) 106 % of control; (endpoint: mean survival time, dose: 25.0 mg/kg/injection, schedule: Q01DX001 (ip), vehicle: saline) 98 % of control; (endpoint: mean survival time, dose: 50.0 mg/kg/injection, schedule: Q01DX001 (ip), vehicle: saline with Tween-80) 95 % of control; under setting [7], 102 % of control and 110 % of control.

On to `Nc1nc(/C=C(/O)c2ccccc2)c2ncn(C3OC(CO)C(O)C3O)c2n1` (centres undefined), for which the T/C was 103 % of control (endpoint: mean survival time, dose: 12.5 mg/kg/injection, schedule: Q01DX005 (ip), vehicle: distilled water + Tween-80); 89 % of control (endpoint: mean survival time, dose: 12.5 mg/kg/injection, schedule: Q01DX009 (ip), vehicle: distilled water + Tween-80); 114 % of control and 115 % of control (endpoint: mean survival time, dose: 25.0 mg/kg/injection, schedule: Q01DX005 (ip), vehicle: distilled water + Tween-80); 89 % of control (endpoint: mean survival time, dose: 25.0 mg/kg/injection, schedule: Q01DX009 (ip), vehicle: distilled water + Tween-80); 120 % of control (endpoint: mean survival time, dose: 50.0 mg/kg/injection, schedule: Q01DX005 (ip), vehicle: distilled water + Tween-80); 92 % of control (endpoint: mean survival time, dose: 50.0 mg/kg/injection, schedule: Q01DX009 (ip), vehicle: distilled water + Tween-80). The T/C is, setting by setting: (endpoint: mean survival time, dose: 100.0 mg/kg/injection, schedule: Q01DX005 (ip), vehicle: distilled water + Tween-80) 160 % of control; (endpoint: mean survival time, dose: 100.0 mg/kg/injection, schedule: Q01DX009 (ip), vehicle: distilled water + Tween-80) 102 % of control; (endpoint: mean survival time, dose: 200.0 mg/kg/injection, schedule: Q01DX009 (ip), vehicle: distilled water + Tween-80) 103 % of control; (endpoint: median survival time, dose: 12.5 mg/kg/injection, schedule: Q01DX009 (ip), vehicle: distilled water + Tween-80) 103 % of control; (endpoint: median survival time, dose: 25.0 mg/kg/injection, schedule: Q01DX009 (ip), vehicle: distilled water + Tween-80) 107 % of control; (endpoint: median survival time, dose: 50.0 mg/kg/injection, schedule: Q01DX009 (ip), vehicle: distilled water + Tween-80) 111 % of control. The T/C (endpoint: median survival time, dose: 100.0 mg/kg/injection, schedule: Q01DX009 (ip), vehicle: distilled water + Tween-80) was 113 % of control.

In the case of `O=C1CC(c2ccccc2)OC(c2ccccc2Cl)C1` (centres undefined), the T/C is 94 % of control under setting [1], 97 % of control under setting [2] and 94 % of control under setting [3].

Consider `CC1CN1CCCNC(=O)C(=O)NCCCN1CC1C` (centres undefined), for which, under “endpoint: mean survival time, dose: 100.0 mg/kg/injection, schedule: Q01DX001 (ip), vehicle: saline”, the T/C is 182 % of control.

Consider `CCOC(=O)/C(C(C)=N)=C(\C)O`, for which the T/C reads like this: under setting [7], 100 % of control; under setting [4], 101 % of control; (endpoint: mean survival time, dose: 200.0 mg/kg/injection, schedule: Q01DX001 (ip), vehicle: saline with Tween-80) 98 % of control; under setting [5], 104 % of control; (endpoint: mean survival time, dose: 400.0 mg/kg/injection, schedule: Q01DX001 (ip), vehicle: saline with Tween-80) 105 % of control.

Take `C1CC[N-]CC1.C1CC[N-]CC1.C1CC[N-]CC1.[Cl][Rh]([Cl])[Cl]`: the T/C under setting [8] is 99 % of control and the T/C under setting [9] is 99 % of control.

`CC(C)(C)OC(=O)NC(Cc1cn(Cc2ccccc2)cn1)C(=O)O` (centres undefined): the T/C reads like this: under setting [1], 95 % of control; under setting [2], 101 % of control; under setting [3], 93 % of control.

In the case of `O=C(Nc1nccs1)c1ccc(Cl)cc1`, the T/C was 96 % of control under setting [10], 96 % of control under setting [4] and 92 % of control under setting [5].

Regarding `N=c1c(C(=O)OCc2ccccc2)ncc(CCl)n1O`, the T/C reads like this: (endpoint: median survival time, dose: 25.0 mg/kg/injection, schedule: Q01DX009 (ip), vehicle: saline with Tween-80) 100 % of control; (endpoint: median survival time, dose: 50.0 mg/kg/injection, schedule: Q01DX009 (ip), vehicle: saline with Tween-80) 101 % of control and 102 % of control; (endpoint: median survival time, dose: 100.0 mg/kg/injection, schedule: Q01DX009 (ip), vehicle: saline with Tween-80) 97 % of control and 109 % of control; (endpoint: median survival time, dose: 200.0 mg/kg/injection, schedule: Q01DX009 (ip), vehicle: saline with Tween-80) 93 % of control and 97 % of control; (endpoint: median survival time, dose: 400.0 mg/kg/injection, schedule: Q01DX009 (ip), vehicle: saline with Tween-80) 99 % of control and 100 % of control.

As to `Cc1[nH]c(=O)[nH]c(=O)c1NC(=O)c1ccccc1[N+](=O)[O-]`, the T/C was 98 % of control under setting [8]; 100 % of control (endpoint: mean survival time, dose: 12.5 mg/kg/injection, schedule: Q04DX003 (ip), vehicle: saline sonified); 104 % of control under setting [9]; 103 % of control (endpoint: mean survival time, dose: 25.0 mg/kg/injection, schedule: Q04DX003 (ip), vehicle: saline sonified); 97 % of control under setting [10]; 94 % of control (endpoint: mean survival time, dose: 50.0 mg/kg/injection, schedule: Q04DX003 (ip), vehicle: saline sonified).

As for `Cc1ccc(P(=O)(O)O)c([N+](=O)[O-])c1`, the T/C was 105 % of control (endpoint: mean survival time, dose: 50.0 mg/kg/injection, schedule: Q04DX003 (ip), vehicle: saline); 95 % of control (endpoint: mean survival time, dose: 100.0 mg/kg/injection, schedule: Q04DX003 (ip), vehicle: saline); 105 % of control (endpoint: mean survival time, dose: 200.0 mg/kg/injection, schedule: Q04DX003 (ip), vehicle: saline).

On to `COc1ccc(NC(=O)Oc2c(Cl)cc(Cl)c3ccccc23)cc1`, for which the T/C was 93 % of control (endpoint: mean survival time, dose: 100.0 mg/kg/injection, schedule: Q04DX002 (ip), vehicle: saline with Tween-80); 93 % of control (endpoint: mean survival time, dose: 200.0 mg/kg/injection, schedule: Q04DX002 (ip), vehicle: saline with Tween-80); 101 % of control (endpoint: mean survival time, dose: 400.0 mg/kg/injection, schedule: Q04DX002 (ip), vehicle: saline with Tween-80).

Regarding `C/C=C/C=C/c1cc2cc3c(c(O)c2c(=O)[nH]1)C1(CC3)C(O)=c2c(=O)c3c(=O)cc(OC)c(=O)c=3c(=O)c2=C1O` (centres undefined), the T/C is 90 % of control and 93 % of control and 108 % of control (endpoint: mean survival time, dose: 0.06 mg/kg/injection, schedule: Q01DX009 (ip), vehicle: DMSO); 97 % of control (endpoint: mean survival time, dose: 0.06 mg/kg/injection, schedule: Q01DX009 (ip), vehicle: Klucel (hydroxypropylcellulose) (HPC)); 113 % of control and 107 % of control (endpoint: mean survival time, dose: 0.12 mg/kg/injection, schedule: Q01DX009 (ip), vehicle: DMSO); 98 % of control (endpoint: mean survival time, dose: 0.12 mg/kg/injection, schedule: Q01DX009 (ip), vehicle: Klucel (hydroxypropylcellulose) (HPC)); 118 % of control (endpoint: mean survival time, dose: 0.25 mg/kg/injection, schedule: Q01DX009 (ip), vehicle: DMSO); 98 % of control (endpoint: mean survival time, dose: 0.25 mg/kg/injection, schedule: Q01DX009 (ip), vehicle: Klucel (hydroxypropylcellulose) (HPC)). Besides, the T/C is 94 % of control (endpoint: mean survival time, dose: 0.5 mg/kg/injection, schedule: Q01DX009 (ip), vehicle: DMSO); 98 % of control (endpoint: mean survival time, dose: 0.5 mg/kg/injection, schedule: Q01DX009 (ip), vehicle: Klucel (hydroxypropylcellulose) (HPC)); 98 % of control (endpoint: mean survival time, dose: 1.0 mg/kg/injection, schedule: Q01DX009 (ip), vehicle: Klucel (hydroxypropylcellulose) (HPC)); 104 % of control (endpoint: mean survival time, dose: 2.0 mg/kg/injection, schedule: Q01DX009 (ip), vehicle: Klucel (hydroxypropylcellulose) (HPC)); 89 % of control (endpoint: median survival time, dose: 0.03 mg/kg/injection, schedule: Q01DX009 (ip), vehicle: DMSO).

In the case of `O=C(O)C1SCCCS1`, the T/C runs as follows: (endpoint: mean survival time, dose: 12.5 mg/kg/injection, schedule: Q04DX002 (ip), vehicle: saline) 105 % of control; (endpoint: mean survival time, dose: 25.0 mg/kg/injection, schedule: Q04DX002 (ip), vehicle: saline) 94 % of control; (endpoint: mean survival time, dose: 50.0 mg/kg/injection, schedule: Q04DX002 (ip), vehicle: saline) 94 % of control.

These data come from PubChem BioAssay AID256 (DTP/NCI, 2004).
